“Also recorded” adds a separate entry of the source. Like-named read-outs stand apart in the source and are kept apart here.
Columns and labels:
[1] = design: method as in PMID 17575528, PMID 21132072; settings: no enteric coating required; cited from earlier work
[2] = tested on: cytochrome P450 (CYP) 3A4; design: method as in PMID 26369775, PMID 29383028, PMID 27414183; settings: lesser extent by CYP2B6, CYP2C19, CYP2D6; cited from earlier work
[3] = Safety/tolerability in the food-effect study (adverse events, vital signs, ECG, laboratory tests); settings: for Incidence of AEs: single 20-mg dose, 24 subjects
Text: Safety variables included physical examination findings; vital signs; electrocardiograms; clinical laboratory evaluations including hematology, chemistry, and urinalysis; and treatment‐emergent adverse events (AEs).
The safety analysis set comprised all enrolled subjects who received at least 1 dose of vonoprazan and was used for safety and baseline demographics summaries.

[4] = design: method as in PMID 25707624, PMID 28198590, PMID 26193978, PMID 31990424; settings: 212 healthy volunteers, daily doses up to 40 mg for up to 7 days; cited from earlier work
[5] = design: method as in PMID 25707624; settings: 20 mg once daily after ≥10-hour fast, cited from earlier work
[6] = Phase 1 randomized open-label crossover food-effect pharmacokinetic study, plasma vonoprazan by LC-MS/MS; format: in vivo, healthy Caucasian male and female subjects (human); settings: for AUC / Cmax / tmax: po, 20 mg; for tmax: read-out: tmax, median (min, max)
Protocol: This was a randomized, open‐label, 2×2 crossover, phase 1 study stratified by gender in healthy Caucasian male and female subjects. The study was conducted at a single site in Northern Ireland (MDS Pharma Services, Belfast, Northern Ireland). The study was approved by an independent ethics committee (Edinburgh Independent Ethics Committee, Edinburgh, Scotland). Written informed consent was obtained from all subjects before study initiation.
The enrolled study population included 12 men and 14 women aged 18 to 45 years, of Caucasian ethnicity, considered eligible on the basis of study inclusion and exclusion criteria. To be eligible, subjects must have been in good health and have had clinical laboratory evaluations (including clinical chemistry, hematology, and urinalysis) within the reference range for the testing laboratory, or only minor deviations that were deemed by the investigator to be clinically nonsignificant. Additional inclusion criteria included a body mass index between 18 and 30 kg/m^2 and a willingness to provide written informed consent before any screening procedures; abstention from caffeine, alcohol, and strenuous exercise from 72 hours before dosing until the follow‐up call/visit; and use of adequate contraception from screening, throughout the study, and for 30 days following the last dose of study medication (applicable to female subjects of childbearing potential who were sexually active) or for 12 weeks after the follow‐up visit (applicable to male subjects with female partners, both of whom were required to use contraception). In addition to caffeine and alcohol, subjects who had received the following were excluded from participation: nicotine products 6 weeks before the first dose of study medication; antibiotics within 28 days prior to initial screening; prescription medication or St. John's wort, ginseng, kava, ginkgo biloba, melatonin, herbal or homeopathic preparations, or other nutriceuticals within 28 days before the first dose; over‐the‐counter medication including salicylates (except when approved on a case‐by‐case basis) or vitamin supplements within 14 days before the first dose; and grapefruit or grapefruit products, Seville oranges (sour) or products, or poppy seeds within 7 days before the first dose.
Subjects were randomized to either the fed/fasted state or fasted/fed state sequence, with randomization stratified by sex. Eligible subjects received a single 20‐mg dose of vonoprazan (given as two 10‐mg tablets) either following an overnight fast or 30 minutes after a breakfast (≈900 calories, with 62% of the calories from fat, 23% from carbohydrate, and 14% from protein).
After a 5‐day washout period, subjects received a second 20‐mg dose of vonoprazan in the alternative fed/fasted state, and the identical process was performed. During dosing in the fasted state, subjects fasted for 10 hours before receiving the study drug. During dosing in the fed state, subjects fasted for 10 hours and then consumed the breakfast, which was started 30 minutes before dosing and eaten in ≤30 minutes. Vonoprazan was taken with 240 mL of water, and subjects refrained from eating for 4 hours after dosing. Water (200 mL) was given to all subjects at 2 and 4 hours after dosing. All administrations of vonoprazan were taken under supervision.
Plasma concentrations of vonoprazan were determined using a liquid chromatography–tandem mass spectrometry assay with a validated concentration range of 0.1 to 100 ng/mL. A total of 864 samples were analyzed in 13 reported batches. The bioanalytical method utilized protein precipitation and extraction of plasma samples with acetonitrile‐formic acid (100:0.2, v/v) before analysis by liquid chromatography–tandem mass spectrometry. […]

[7] = cited from earlier work
[8] = design: method as in PMID 25707624; settings: 20 mg once daily after ≥10-hour fast, cited from earlier work; remark: listed apart in the source
gastric acid secretion = tested on: gastric acid secretion; design: method as in PMID 26111126; settings: single doses ≥20 mg, clinical studies; cited from earlier work
[9] = design: method as in PMID 26369775; settings: single 20 mg, cited from earlier work
[10] = single 20-mg doses, fed and fasted
[11] = 12 healthy Japanese adult men, unchanged vonoprazan

Q: For CNCc1cc(-c2ccccc2F)n(S(=O)(=O)c2cccnc2)c1.O=C(O)/C=C/C(=O)O [vonoprazan, 1‐[5‐(2‐fluorophenyl)‐1‐(pyridin‐3‐ylsulfonyl)‐1H‐pyrrol‐3‐yl]‐N‐methylmethanamine monofumarate], which acid stability [1] is on record?
A: The acid stability was “acid stable”.

Q: What about the metabolizing enzymes [2] of the same molecule?
A: The metabolizing enzymes was “primarily metabolized by cytochrome P450 (CYP) 3A4”.

Q: What about the “Incidence of AEs” value ([3]; fasted state) of the same molecule?
A: Its value is 12.5%.

Q: What about the “Incidence of AEs” value ([3]; fed state) of the same molecule?
A: Its value is 8.3%.

Q: What about the Tolerability ([3]; single 20-mg doses given on 2 occasions, healthy subjects) of the same molecule?
A: The Tolerability was “safe and well tolerated”.

Q: What about the “Changes in liver function tests” value [3, 10] of the same molecule?
A: Its value is “no obvious treatment‐emergent changes”.

Q: What about the “Changes in vital signs, 12-lead electrocardiograms, laboratory safety tests” value [3, 10] of the same molecule?
A: The value was “no clinically important changes”.

Q: And the “Serious AEs and deaths during the study” value [3, 10]?
A: Its value is “No serious AEs and no deaths”.

Q: And the “Severity of reported AEs” value [3, 10]?
A: Its value is “mild”.

Q: And the “Number of adverse events” value ([3]; whole study, four subjects affected)?
A: The value was 6.

Q: And the safety signals [4]?
A: Its safety signals is “no safety signals”.

Q: What about the tmax ([5]; day 1, UK study) of the same molecule?
A: The tmax was 1.5 h.

Q: And the tmax ([5]; day 7, UK study)?
A: Its tmax is 1.1 h.

Q: And the AUC ([6]; both sexes, human, plasma, single 20-mg oral dose, fasted, N = 24, read-out: AUC0‐24, least-squares mean)?
A: The AUC was 154 ng·h/mL.

Q: What about the AUC ([6]; both sexes, human, plasma, single 20-mg oral dose, fasted, N = 24, read-out: AUC0‐∞, least-squares mean) of the same molecule?
A: Its AUC is 171 ng·h/mL.

Q: What about the Cmax ([6]; both sexes, human, plasma, single 20-mg oral dose, fasted, N = 24, read-out: Cmax, least-squares mean) of the same molecule?
A: The Cmax was 17.3 ng/mL.

Q: What about the AUC ([6]; both sexes, human, plasma, single 20-mg oral dose, fasted, n = 24, plasma, read-out: AUC0‐24, mean (SD)) of the same molecule?
A: Its AUC is 161 ng·h/mL.

Q: What about the AUC ([6]; both sexes, human, plasma, single 20-mg oral dose, fasted, n = 24, plasma, read-out: AUC0‐∞, mean (SD)) of the same molecule?
A: The AUC was 179 ng·h/mL.

Q: What about the Cmax ([6]; both sexes, human, plasma, single 20-mg oral dose, fasted, n = 24, plasma, read-out: Cmax, mean (SD)) of the same molecule?
A: Its Cmax is 18.2 ng/mL.

Q: And the tmax ([6]; both sexes, human, plasma, single 20-mg oral dose, fasted, n = 24)?
A: Its tmax is 2 h.

Q: And the Cmax ([6]; both sexes, human, plasma, single 20-mg oral dose, fed (high-fat breakfast), n = 24, plasma, read-out: Cmax, mean (SD))?
A: The Cmax was 18.9 ng/mL.

Q: And the AUC ([6]; both sexes, human, plasma, single 20-mg oral dose, fed, N = 24, read-out: AUC0‐24, least-squares mean)?
A: Its AUC is 174 ng·h/mL.

Q: What about the AUC ([6]; both sexes, human, plasma, single 20-mg oral dose, fed, N = 24, read-out: AUC0‐∞, least-squares mean) of the same molecule?
A: Its AUC is 196 ng·h/mL.

Q: What about the Cmax ([6]; both sexes, human, plasma, single 20-mg oral dose, fed, N = 24, read-out: Cmax, least-squares mean) of the same molecule?
A: Its Cmax is 18.2 ng/mL.

Q: What about the AUC ([6]; both sexes, human, plasma, single 20-mg oral dose, fed, n = 24, plasma, read-out: AUC0‐24, mean (SD)) of the same molecule?
A: The AUC was 182 ng·h/mL.

Q: What about the AUC ([6]; both sexes, human, plasma, single 20-mg oral dose, fed, n = 24, plasma, read-out: AUC0‐∞, mean (SD)) of the same molecule?
A: The AUC was 206 ng·h/mL.

Q: What about the tmax ([6]; both sexes, human, plasma, single 20-mg oral dose, fed, n = 24) of the same molecule?
A: Its tmax is 4 h.

Q: What about the half-life ([6]; both sexes, human, plasma, single 20-mg oral dose, fed, n = 24, read-out: t1/2 (terminal elimination half-life), mean (SD) (converted)) of the same molecule?
A: Its half-life is 6.9 h.

Q: And the “Effect of food on exposure” value ([6]; single 20-mg dose, fed vs fasted, CI within 80% to 125%)?
A: The value was “not meaningfully affected by food; also recorded: not materially affected by food”.

Q: What about the “AUC0‐24, fed/fasted ratio of geometric (least-squares) means” value ([6]; single 20-mg oral dose, N = 24) of the same molecule?
A: The value was 1.13.

Q: What about the “AUC0‐∞, fed/fasted ratio of geometric (least-squares) means” value ([6]; single 20-mg oral dose, N = 24) of the same molecule?
A: The value was 1.15.

Q: What about the “Cmax, fed/fasted ratio of geometric (least-squares) means” value ([6]; single 20-mg oral dose, N = 24) of the same molecule?
A: Its value is 1.05.

Q: And the “t1/2 (terminal elimination half-life), mean (SD)” value ([6]; single 20-mg oral dose, fasted, n = 24)?
A: The value was 6.9 (1.45) h.

Q: And the “influence of CYP2C19 polymorphisms on pharmacokinetics” value ([7]; Japanese repeated-dose study and earlier phase 1 study)?
A: The value was “not influenced by CYP2C19 polymorphisms”.

Q: What about the “accumulation in plasma after multiple doses” value ([7]; doses from 10 to 40 mg, days 1 and 7) of the same molecule?
A: Its value is “little to no accumulation”.

Q: What about the “median time of peak plasma concentrations (tmax)” value ([7]; oral, once-daily dosing) of the same molecule?
A: Its value is no more than 2 h.

Q: And the tmax ([8]; day 1, Japanese study)?
A: The tmax was 1.5 h.

Q: And the tmax ([8]; day 7, Japanese study)?
A: Its tmax is 1.5 h.

Q: And the Tolerability (gastric acid secretion)?
A: The Tolerability was “well tolerated”.

Q: And the duration of action (gastric acid secretion)?
A: The duration of action was 24 h.

Q: And the onset of action (gastric acid secretion)?
A: The onset of action was less than 4 h.

Q: And the “AUC0‐48, fed/fasted ratio” value [9, 11]?
A: Its value is 1.08.

Q: What about the “Cmax, fed/fasted ratio” value [9, 11] of the same molecule?
A: The value was 1.09.

Q: What about the “AUC0‐∞” value ([9]; fasted state, Japanese men) of the same molecule?
A: Its value is 225.3 ng·h/mL.

Q: What about the Cmax ([9]; fasted state, Japanese men) of the same molecule?
A: Its Cmax is 24.3 ng/mL.

Q: What about the median tmax ([9]; fasted state, Japanese men) of the same molecule?
A: The median tmax was 1.5 h.

Q: What about the t1/2 ([9]; fasted state, Japanese men) of the same molecule?
A: Its t1/2 is 7.7 h.

Q: What about the median tmax ([9]; fed state, Japanese men) of the same molecule?
A: The median tmax was 3.0 h.
